Assay results reported in PMC11226696, “Ergothioneine promotes longevity and healthy aging in male mice” (GeroScience, 2024).

Target: T1, recombinant human histamine N-methyltransferase (rhHNMT) (Homo sapiens, UniProt P50135)
T1 construct: gene HNMT
Assay: recombinant enzyme assay, LC-MS/MS of histamine and methylhistamine; Lineweaver-Burk analysis
Type: biochemical

T1 sequence (P50135 whole entry): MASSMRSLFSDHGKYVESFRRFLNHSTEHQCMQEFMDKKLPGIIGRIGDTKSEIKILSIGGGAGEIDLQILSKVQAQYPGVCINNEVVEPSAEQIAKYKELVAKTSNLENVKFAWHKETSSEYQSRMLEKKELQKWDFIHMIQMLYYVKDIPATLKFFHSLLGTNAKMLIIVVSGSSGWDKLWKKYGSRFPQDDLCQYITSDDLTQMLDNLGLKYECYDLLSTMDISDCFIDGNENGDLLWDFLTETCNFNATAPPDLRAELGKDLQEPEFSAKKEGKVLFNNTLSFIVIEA

Compound: C[N+](C)(C)[C@@H](Cc1c[nH]c(=S)[nH]1)C(=O)[O-] [ERGO, ergothioneine]
- recombinant enzyme assay, LC-MS/MS of histamine and methylhistamine; Lineweaver-: Lineweaver–Burk analysis revealed that ERGO competitively inhibited rhHNMT against histamine (Fig. 6c)
